Read-outs that look alike come from different tables or passages of the source.
Molecular target: T1, human ADRA2B receptor (Homo sapiens, UniProt P18089)
T1 construct: expressed in transfected cells
T1 sequence (P18089 1-450): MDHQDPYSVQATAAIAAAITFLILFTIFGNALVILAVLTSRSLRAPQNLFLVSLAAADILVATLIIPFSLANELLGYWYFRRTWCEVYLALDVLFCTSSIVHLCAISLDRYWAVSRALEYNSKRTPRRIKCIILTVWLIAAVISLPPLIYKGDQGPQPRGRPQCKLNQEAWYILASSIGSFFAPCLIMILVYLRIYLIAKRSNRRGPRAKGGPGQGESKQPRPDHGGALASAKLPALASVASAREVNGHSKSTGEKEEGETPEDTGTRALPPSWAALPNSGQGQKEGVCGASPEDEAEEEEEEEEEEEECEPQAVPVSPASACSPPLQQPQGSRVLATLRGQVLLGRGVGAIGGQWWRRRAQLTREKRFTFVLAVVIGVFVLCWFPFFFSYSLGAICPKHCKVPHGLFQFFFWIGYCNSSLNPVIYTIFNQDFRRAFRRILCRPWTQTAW
Experiment: ADRA2B arrestin agonist assay
Type: cell-based
Details: read-out: Beta-Arrestin - Human Alpha2B EC50
Method: ADRA2A and ADRA2B Arrestin Agonist Assay Method
The arrestin assay uses frozen CHO-K1 cell lines stably expressing human ADRA2A and ADRA2B receptors. Cells are frozen following normal cell freezing protocols. Briefly, cells are washed with PBS and then dissociated with 0.25% trypsin. Dissociated cells are quenched in full media and then collected by centrifugation at 290×g for 5 minutes. […] Cells are stored at −80° C. (or in liquid N2 if stored >6 months) until the day of the assay.
On the day before the assay, frozen cells are thawed in a 37° C. water bath, brought up in 20 mL of full media, and collected via centrifugation at 290×g for 5 minutes. […] Cells are incubated overnight in a 37° C., 5% CO2 cell incubator.
On the day of the assay, agonists are diluted in Opti-MEM to 3.5x of the final assay concentration. 4 μL of agonists are added to the cells and incubated for 2 hours at 37° C. in a 5% CO2 cell incubator. 6 μL of arrestin detection reagents are dispensed onto the cells and the plates are incubated for 2 hours at room temperature. […] Plates are read on an Envision luminescence plate reader.

[1] = CHO-K1 cells stably expressing human ADRA2B

SMILES | EC50 [1] | EC50
Cc1nccc(CC(c2ccc3c(c2)OCCO3)c2c[nH]cn2)n1 (stereo not shown) [Compound 175, 4-[2-(2,3-dihydro-1,4-benzodioxin-6-yl)-2-(4 imidazolyl)ethyl]-2-methylpyrimidine] | > 500 nM | 
COCc1nccc(CC(c2c[nH]cn2)c2cccc(C)c2C)n1 (stereo not shown) [Compound 176, 4-[2-(4-imidazolyl)-2-(2,3-xylyl)ethyl]-2-(methoxymethyl) pyrimidine] | < 10 nM | 
COc1nccc(C[C@@H](c2c[nH]cn2)c2cccc(C)c2OC)n1 [Compound 179, 4-[(R)-2-(4-imidazolyl)-2-(2-methoxy-3-tolyl)ethyl]-2-methoxypyrimidine] | < 10 nM | 
COc1nccc(C[C@H](c2c[nH]cn2)c2cccc(C)c2OC)n1 [Compound 180, 4-[(S)-2-(4-imidazolyl)-2-(2-methoxy-3-tolyl)ethyl]-2-methoxypyrimidine] | > 500 nM | 
COc1nccc(CC(c2c[nH]cn2)c2cccc(OC)c2F)n1 (stereo not shown) [Compound 181, 4-[2-(2-fluoro-3-methoxyphenyl)-2-(4-imidazolyl)ethyl]-2-methoxypyrimidine] | 10 to 50 nM | 
COc1nccc(C[C@@H](c2c[nH]cn2)c2cccc(F)c2OC)n1 [Compound 182, 4-[(R)-2-(3-fluoro-2-methoxyphenyl)-2-(4-imidazolyl)ethyl]-2-methoxypyrimidine] | 10 to 50 nM | 
COc1nccc(C[C@H](c2c[nH]cn2)c2cccc(F)c2OC)n1 [Compound 183, 4-[(S)-2-(3-fluoro-2-methoxyphenyl)-2-(4-imidazolyl)ethyl]-2-methoxypyrimidine] | > 500 nM | 
COc1c(Cl)cccc1C(Cc1ccnc(C)n1)c1c[nH]cn1 (stereo not shown) [Compound 187, 4-[2-(3-chloro-2-methoxyphenyl)-2-(4-imidazolyl)ethyl]-2-methylpyrimidine] | 50 to 500 nM | 
COc1nccc(CC(c2c[nH]cn2)c2ccc(C)c(F)c2F)n1 (stereo not shown) [Compound 189, 4-[2-(2,3-difluoro-4-tolyl)-2-(4-imidazolyl)ethyl]-2-methoxypyrimidine] | > 500 nM | 
COc1nccc(CC(c2c[nH]cn2)c2cccc(Cl)c2F)n1 (stereo not shown) [Compound 190, 4-[2-(3-chloro-2-fluorophenyl)-2-(4-imidazolyl)ethyl]-2-methoxypyrimidine] | 10 to 50 nM | 
OCc1nccc(CC(c2c[nH]cn2)c2cccc(Cl)c2F)n1 (stereo not shown) [Compound 191, {4-[2-(3-chloro-2-fluorophenyl)-2-(4-imidazolyl)ethyl]-2-pyrimidinyl}methanol] | 10 to 50 nM | 
Cc1nccc(CC(c2c[nH]cn2)c2cccc(Cl)c2Cl)n1 (stereo not shown) [Compound 192, 4-[2-(2,3-dichlorophenyl)-2-(4-imidazolyl)ethyl]-2-methylpyrimidine] | < 10 nM | 
COc1nccc(CC(c2c[nH]cn2)c2ccccc2OC2CC2)n1 (stereo not shown) [Compound 195, 4-[2-(o-cyclopropoxyphenyl)-2-(4-imidazolyl)ethyl]-2-methoxypyrimidine] | 10 to 50 nM | 
CCOc1c(F)cccc1C(Cc1ccnc(OC)n1)c1c[nH]cn1 (stereo not shown) [Compound 197, 4-[2-(2-ethoxy-3-fluorophenyl)-2-(4-imidazolyl)ethyl]-2-methoxypyrimidine] | 50 to 500 nM | 
COc1nccc(CC(c2c[nH]cn2)c2cccc(C(F)(F)F)c2C)n1 (stereo not shown) [Compound 202, 4-{2-(4-imidazolyl)-2 [3-(trifluoromethyl)-2-tolyl]ethyl}-2-methoxypyrimidine] | < 10 nM | 
Cc1cccc([C@@H](Cc2ccnc(C(C)(C)F)n2)c2c[nH]cn2)c1C [Compound 205, 4-[(R)-2-(4-imidazolyl)-2-(2,3-xylyl)ethyl]-2-(1-fluoro-1-methylethyl)pyrimidine] | < 10 nM | 
Cc1cc(CC(c2c[nH]cn2)c2cccc(C)c2C)nc(C(C)(C)F)n1 (stereo not shown) [Compound 206, 2-(1-fluoro-1-methylethyl)-4-[2-(4 imidazolyl)-2-(2,3-xylyl)ethyl]-6-methylpyrimidine] | < 10 nM | 
Cc1cc(CC(c2c[nH]cn2)c2cccc(C)c2C)nc(C(C)(C)O)n1 (stereo not shown) [Compound 207, 2-{4-[2-(4-imidazolyl)-2-(2,3-xylyl)ethyl]-6-methyl 2-pyrimidinyl}-2-propanol] | < 10 nM | 
Cc1cccc(C(Cc2ccnc(COC3CC3)n2)c2c[nH]cn2)c1C (stereo not shown) [Compound 208, 2-(cyclopropoxymethyl)-4-[2-(4-imidazolyl) 2-(2,3-xylyl)ethyl]pyrimidine] | < 10 nM | 
COC(C)(C)c1nccc(CC(c2c[nH]cn2)c2cccc(C)c2C)n1 (stereo not shown) [Compound 209, 4-[2-(4-imidazolyl)-2-(2,3-xylyl)ethyl]-2-(1-methoxy-1-methylethyl)pyrimidine] | < 10 nM | 

SMILES | EC50 [1] | EC50
Cc1cccc(C(Cc2ccnc(C3COC3)n2)c2c[nH]cn2)c1C (stereo not shown) [Compound 210, 4-[2-(4-imidazolyl)-2-(2,3-xylyl)ethyl]-2-(3-oxetanyl)pyrimidine] | < 10 nM | 
Cc1cccc([C@H](Cc2ccnc(C(C)(C)O)n2)c2c[nH]cn2)c1C [Compound 211, 2-{4-[(S)-2-(4-imidazolyl)-2-(2,3-xylyl)ethyl]-2-pyrimidinyl}-2-propanol] | > 500 nM | 
Cc1cccc([C@@H](Cc2ccnc(C(C)(C)O)n2)c2c[nH]cn2)c1C [Compound 212, 2-{4-[(R)-2-(4-imidazolyl)-2-(2,3-xylyl)ethyl]-2-pyrimidinyl}-2-propanol] | < 10 nM | 
Cc1cccc([C@@H](Cc2cn[nH]c2)c2c[nH]cn2)c1C [Compound 232, 4-[(R)-2-(4-imidazolyl)-2-(2,3-xylyl)ethyl]pyrazole] | > 500 nM | 
Cc1cccc([C@H](Cc2cn[nH]c2)c2c[nH]cn2)c1C [Compound 233, 4-[(S)-2-(4-imidazolyl)-2-(2,3-xylyl)ethyl]pyrazole] |  | < 10 nM
Cc1cccc([C@@H](Cc2cc[nH]n2)c2c[nH]cn2)c1C [Compound 234, 3-[(R)-2-(4-imidazolyl)-2-(2,3-xylyl)ethyl]pyrazole] | > 500 nM | 
Cc1cccc([C@H](Cc2cc[nH]n2)c2c[nH]cn2)c1C [Compound 235, 3-[(S)-2-(4-imidazolyl)-2-(2,3-xylyl)ethyl]pyrazole] | < 10 nM | 
Cc1cccc(C(Cc2cc[nH]n2)c2c[nH]cn2)c1F (stereo not shown) [Compound 236, 3-[2-(2-fluoro-3-tolyl)-2-(4-imidazolyl)ethyl]pyrazole] | 50 to 500 nM | 
c1cc2c(c([C@@H](Cc3cc[nH]n3)c3c[nH]cn3)c1)OCC2 [Compound 237, 3-[(R)-2-(2,3-dihydro-1-benzofuran-7-yl)-2-(4-imidazolyl)ethyl]pyrazole] | > 500 nM | 
c1cc2c(c([C@H](Cc3cc[nH]n3)c3c[nH]cn3)c1)OCC2 [Compound 238, 3-[(S)-2-(2,3-dihydro-1-benzofuran-7-yl)-2-(4-imidazolyl)ethyl]pyrazole] | 10 to 50 nM | 
Cc1cccc([C@@H](Cc2cn(C)nn2)c2c[nH]cn2)c1C [Compound 239, 4-[(R)-2-(4-imidazolyl)-2-(2,3-xylyl)ethyl]-1-methyl-1H-1,2,3-triazole] | > 500 nM | 
Cc1cccc([C@H](Cc2cn(C)nn2)c2c[nH]cn2)c1C [Compound 240, 4-[(S)-2-(4-imidazolyl)-2-(2,3-xylyl)ethyl]-1-methyl-1H-1,2,3-triazole] | < 10 nM | 
COc1c(C)cccc1C(Cc1cc[nH]n1)c1c[nH]cn1 (stereo not shown) [Compound 242, 3-[2-(4-imidazolyl)-2-(2-methoxy-3-tolyl)ethyl]pyrazole] | > 500 nM | 
Cc1nc(CC(c2c[nH]cn2)c2cccc(C)c2C)no1 (stereo not shown) [Compound 243, 3-[2-(4-imidazolyl)-2-(2,3-xylyl)ethyl]-5-methyl-1,2,4-oxadiazole-formic acid (1/1)] | 50 to 500 nM | 
Cc1cccc(C(Cc2ccns2)c2c[nH]cn2)c1C (stereo not shown) [Compound 244, 5-[2-(4-imidazolyl)-2-(2,3-xylyl)ethyl]isothiazole] | < 10 nM | 
Cc1cccc(C(Cc2ccsn2)c2c[nH]cn2)c1C (stereo not shown) [Compound 245, 3-[2-(4-imidazolyl)-2-(2,3-xylyl)ethyl]isothiazole] | < 10 nM | 
Cc1cccc([C@@H](Cc2ccnn2C)c2c[nH]cn2)c1F [Compound 246, 5-[(R)-2-(2-fluoro-3-tolyl)-2-(4-imidazolyl)ethyl]-1-methylpyrazole] | 50 to 500 nM | 
Cc1cccc([C@H](Cc2ccnn2C)c2c[nH]cn2)c1F [Compound 247, 5-[(S)-2-(2-fluoro-3-tolyl)-2-(4-imidazolyl)ethyl]-1-methylpyrazole] | 50 to 500 nM | 
Cc1cccc(C(Cc2ncns2)c2c[nH]cn2)c1C (stereo not shown) [Compound 248, 5-[2-(4-imidazolyl)-2-(2,3-xylyl)ethyl]-1,2,4-thiadiazole] | < 10 nM | 
Cc1cccc([C@@H](Cc2cn(C)nn2)c2c[nH]cn2)c1F [Compound 249, 4-[(R)-2-(2-fluoro-3-tolyl)-2-(4-imidazolyl)ethyl]-1-methyl-1H-1,2,3-triazole] | < 10 nM | 
